Measurements taken from article PMC3643963, “Enhancement of Proteolytic Activity of a Thermostable Papain-Like Protease by Structure-Based Rational Design” (PLoS ONE, 2013).

Columns and labels:
Experiment in all cases: residual activity, pNA release at […] nm
Assay type in all cases: biochemical
Conditions in all cases: read-out: IC50 against E-64
[1] = molecular target: Ervatamin-C (Erv-C) (Tabernaemontana divaricata, UniProt A8DS38)
[2] = molecular target: Ervatamin-C (Erv-C) (Tabernaemontana divaricata, UniProt A8DS38, A200Y/S165T)
Ervatamin-C (Erv-C) (Tabernaemontana divaricata, UniProt A8DS38, A200Y/S165T), sequence (A8DS38 134-341 S165T/A200Y): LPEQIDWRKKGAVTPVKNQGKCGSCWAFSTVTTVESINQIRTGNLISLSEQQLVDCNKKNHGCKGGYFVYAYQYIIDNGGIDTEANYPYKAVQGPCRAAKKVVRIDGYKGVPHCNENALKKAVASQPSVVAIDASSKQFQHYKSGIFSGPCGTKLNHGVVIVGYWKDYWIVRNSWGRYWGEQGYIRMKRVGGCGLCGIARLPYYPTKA

[3] = molecular target: Ervatamin-C (Erv-C) (Tabernaemontana divaricata, UniProt A8DS38, A200Y)
Ervatamin-C (Erv-C) (Tabernaemontana divaricata, UniProt A8DS38, A200Y), sequence (A8DS38 134-341 A200Y): as the sequence (A8DS38 134-341 S165T/A200Y) above, with T32S counted along it

Ervatamin-C (Erv-C) (Tabernaemontana divaricata, UniProt A8DS38), sequence (A8DS38 134-341): as the sequence (A8DS38 134-341 S165T/A200Y) above, with T32S, Y67A counted along it

In the case of CC(C)C[C@H](NC(=O)[C@H]1O[C@@H]1C(=O)O)C(=O)NCCCCN=C(N)N [E-64], the IC50 [1] is reported as 0.349 µM, the IC50 [2] is reported as 0.171 µM and the IC50 [3] is reported as 0.251 µM.
